Source: ChEMBL document CHEMBL5291721, “A preclinical secondary pharmacology resource illuminates target-adverse drug reaction associations of marketed drugs” (Nat Commun, 2023)

Tests used:
[1] = target: T1, Alpha-1A adrenergic receptor (Homo sapiens, UniProt P35348); assay type: functional, cell-based
T1 sequence (P35348 whole entry): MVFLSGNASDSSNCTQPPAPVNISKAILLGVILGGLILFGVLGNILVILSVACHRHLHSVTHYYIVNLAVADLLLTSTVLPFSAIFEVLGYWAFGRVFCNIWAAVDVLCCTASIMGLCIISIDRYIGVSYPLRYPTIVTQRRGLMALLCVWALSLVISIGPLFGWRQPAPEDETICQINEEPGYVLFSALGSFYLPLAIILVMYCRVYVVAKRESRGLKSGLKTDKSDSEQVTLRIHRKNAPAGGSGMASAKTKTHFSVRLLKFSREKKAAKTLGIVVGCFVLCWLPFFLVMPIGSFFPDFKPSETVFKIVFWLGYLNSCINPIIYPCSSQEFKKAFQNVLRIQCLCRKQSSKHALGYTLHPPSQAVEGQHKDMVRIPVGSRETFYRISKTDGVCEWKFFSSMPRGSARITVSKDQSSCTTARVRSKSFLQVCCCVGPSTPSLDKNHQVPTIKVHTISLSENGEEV

[2] = target: Acetylcholinesterase (Homo sapiens, UniProt P22303); assay type: functional
[3] = target: T1, Alpha-1A adrenergic receptor; assay type: functional, cell-based; remark: listed apart in the source
[4] = target: T2, 5-hydroxytryptamine receptor 1A (Homo sapiens, UniProt P08908)
T2 sequence (P08908 whole entry): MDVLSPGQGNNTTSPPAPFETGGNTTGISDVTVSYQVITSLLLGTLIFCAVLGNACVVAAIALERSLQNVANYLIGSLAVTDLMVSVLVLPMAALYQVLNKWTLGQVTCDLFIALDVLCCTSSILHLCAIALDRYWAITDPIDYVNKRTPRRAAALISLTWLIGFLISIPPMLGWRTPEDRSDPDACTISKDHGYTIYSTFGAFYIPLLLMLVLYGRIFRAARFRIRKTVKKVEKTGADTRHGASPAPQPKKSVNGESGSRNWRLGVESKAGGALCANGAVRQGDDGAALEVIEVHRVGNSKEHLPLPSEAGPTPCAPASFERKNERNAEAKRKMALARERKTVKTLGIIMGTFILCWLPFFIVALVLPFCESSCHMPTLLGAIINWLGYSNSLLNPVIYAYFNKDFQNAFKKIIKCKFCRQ

[5] = target: T3, Progesterone receptor (Homo sapiens, UniProt P06401); assay type: functional
T3 sequence (P06401 whole entry): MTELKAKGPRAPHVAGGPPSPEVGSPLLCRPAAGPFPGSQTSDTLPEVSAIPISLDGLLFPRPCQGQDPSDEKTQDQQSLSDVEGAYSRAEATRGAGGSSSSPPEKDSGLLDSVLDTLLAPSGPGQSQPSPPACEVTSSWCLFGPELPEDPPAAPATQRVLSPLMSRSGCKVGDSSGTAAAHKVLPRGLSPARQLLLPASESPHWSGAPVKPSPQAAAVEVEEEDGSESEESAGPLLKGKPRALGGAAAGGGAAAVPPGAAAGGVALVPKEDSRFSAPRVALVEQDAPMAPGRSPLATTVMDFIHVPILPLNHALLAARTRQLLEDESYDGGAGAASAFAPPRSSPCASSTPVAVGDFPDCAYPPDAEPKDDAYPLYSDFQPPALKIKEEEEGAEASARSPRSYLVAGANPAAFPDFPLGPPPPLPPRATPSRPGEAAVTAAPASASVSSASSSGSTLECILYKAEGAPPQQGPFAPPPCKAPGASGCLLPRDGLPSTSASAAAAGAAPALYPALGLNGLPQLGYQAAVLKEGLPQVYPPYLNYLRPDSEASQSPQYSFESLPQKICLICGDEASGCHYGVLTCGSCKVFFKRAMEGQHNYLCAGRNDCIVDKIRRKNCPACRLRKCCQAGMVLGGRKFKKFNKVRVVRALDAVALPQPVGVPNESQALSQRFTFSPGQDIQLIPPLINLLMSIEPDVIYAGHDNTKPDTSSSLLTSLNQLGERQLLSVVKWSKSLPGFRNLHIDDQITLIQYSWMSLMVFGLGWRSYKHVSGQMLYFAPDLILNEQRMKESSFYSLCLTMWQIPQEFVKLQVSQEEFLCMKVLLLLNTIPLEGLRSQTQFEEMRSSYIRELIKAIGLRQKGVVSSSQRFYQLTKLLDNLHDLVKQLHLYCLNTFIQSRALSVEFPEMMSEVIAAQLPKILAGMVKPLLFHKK

[6] = target: Vasopressin V1a receptor (Homo sapiens, UniProt P37288)
[7] = target: Mu-type opioid receptor (Homo sapiens, UniProt P35372); test: biochemical; assay type: functional
[8] = target: Voltage-dependent L-type calcium channel subunit alpha-1C (Rattus norvegicus, UniProt P22002); assay type: functional
[9] = target: Cannabinoid receptor 1 (Homo sapiens, UniProt P21554); assay type: functional, cell-based
[10] = target: T4, Muscarinic acetylcholine receptor M2 (Homo sapiens, UniProt P08172); assay type: functional, cell-based
T4 sequence (P08172 whole entry): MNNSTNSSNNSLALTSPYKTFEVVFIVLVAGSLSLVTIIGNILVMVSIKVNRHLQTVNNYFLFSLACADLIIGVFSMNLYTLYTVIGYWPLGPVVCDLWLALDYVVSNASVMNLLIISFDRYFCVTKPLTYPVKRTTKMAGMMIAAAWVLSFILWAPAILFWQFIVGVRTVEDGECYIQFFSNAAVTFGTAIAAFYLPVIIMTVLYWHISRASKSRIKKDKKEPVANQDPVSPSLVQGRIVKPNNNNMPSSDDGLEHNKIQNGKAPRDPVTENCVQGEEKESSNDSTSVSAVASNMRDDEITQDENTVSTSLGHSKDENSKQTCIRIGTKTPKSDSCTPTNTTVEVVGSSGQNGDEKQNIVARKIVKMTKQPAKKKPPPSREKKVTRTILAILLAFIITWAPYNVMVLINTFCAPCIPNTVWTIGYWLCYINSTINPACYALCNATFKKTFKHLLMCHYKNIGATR
Further: assay procedure not described here.

Chain of Cannabinoid receptor 1 (P21554 whole entry): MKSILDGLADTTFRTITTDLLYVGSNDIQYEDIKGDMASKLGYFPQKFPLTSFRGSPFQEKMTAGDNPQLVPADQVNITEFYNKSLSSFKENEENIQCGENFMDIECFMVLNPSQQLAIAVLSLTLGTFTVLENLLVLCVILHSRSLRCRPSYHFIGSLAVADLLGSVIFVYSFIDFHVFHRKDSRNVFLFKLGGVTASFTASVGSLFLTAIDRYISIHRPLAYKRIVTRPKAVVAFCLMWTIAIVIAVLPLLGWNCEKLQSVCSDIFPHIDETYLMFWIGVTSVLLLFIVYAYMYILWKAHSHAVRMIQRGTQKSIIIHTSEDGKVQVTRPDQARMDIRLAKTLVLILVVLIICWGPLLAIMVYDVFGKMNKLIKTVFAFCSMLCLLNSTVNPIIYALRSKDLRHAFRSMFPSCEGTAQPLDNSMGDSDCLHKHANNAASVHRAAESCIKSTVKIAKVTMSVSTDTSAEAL
Chain of Acetylcholinesterase (P22303 whole entry): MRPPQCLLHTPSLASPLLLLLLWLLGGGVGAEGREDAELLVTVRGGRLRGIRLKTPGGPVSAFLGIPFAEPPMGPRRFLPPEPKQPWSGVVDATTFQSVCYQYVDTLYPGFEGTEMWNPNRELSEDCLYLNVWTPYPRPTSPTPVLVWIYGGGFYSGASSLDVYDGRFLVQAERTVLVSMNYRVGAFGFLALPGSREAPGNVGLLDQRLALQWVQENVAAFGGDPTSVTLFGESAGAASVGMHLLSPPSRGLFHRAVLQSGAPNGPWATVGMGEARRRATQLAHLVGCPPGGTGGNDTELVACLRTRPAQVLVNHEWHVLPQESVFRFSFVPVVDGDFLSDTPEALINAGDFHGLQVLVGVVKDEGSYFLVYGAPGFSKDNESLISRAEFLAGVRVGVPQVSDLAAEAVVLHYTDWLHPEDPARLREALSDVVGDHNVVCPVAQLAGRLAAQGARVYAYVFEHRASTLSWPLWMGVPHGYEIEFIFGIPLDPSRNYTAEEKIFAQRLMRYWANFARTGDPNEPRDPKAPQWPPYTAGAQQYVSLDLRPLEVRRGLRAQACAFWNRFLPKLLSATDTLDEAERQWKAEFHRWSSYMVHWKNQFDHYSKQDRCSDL
Chain of Mu-type opioid receptor (P35372 whole entry): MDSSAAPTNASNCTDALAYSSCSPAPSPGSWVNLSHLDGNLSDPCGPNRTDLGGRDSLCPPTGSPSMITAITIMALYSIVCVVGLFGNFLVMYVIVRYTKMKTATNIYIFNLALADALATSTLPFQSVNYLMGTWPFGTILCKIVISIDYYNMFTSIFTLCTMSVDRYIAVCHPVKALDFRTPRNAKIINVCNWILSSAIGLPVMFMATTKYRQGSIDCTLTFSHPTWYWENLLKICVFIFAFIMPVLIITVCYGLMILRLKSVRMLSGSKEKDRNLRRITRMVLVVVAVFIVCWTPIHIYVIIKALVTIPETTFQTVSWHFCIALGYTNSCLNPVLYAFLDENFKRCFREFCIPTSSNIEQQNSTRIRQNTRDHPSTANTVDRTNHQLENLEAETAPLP
Chain of Vasopressin V1a receptor (P37288 whole entry): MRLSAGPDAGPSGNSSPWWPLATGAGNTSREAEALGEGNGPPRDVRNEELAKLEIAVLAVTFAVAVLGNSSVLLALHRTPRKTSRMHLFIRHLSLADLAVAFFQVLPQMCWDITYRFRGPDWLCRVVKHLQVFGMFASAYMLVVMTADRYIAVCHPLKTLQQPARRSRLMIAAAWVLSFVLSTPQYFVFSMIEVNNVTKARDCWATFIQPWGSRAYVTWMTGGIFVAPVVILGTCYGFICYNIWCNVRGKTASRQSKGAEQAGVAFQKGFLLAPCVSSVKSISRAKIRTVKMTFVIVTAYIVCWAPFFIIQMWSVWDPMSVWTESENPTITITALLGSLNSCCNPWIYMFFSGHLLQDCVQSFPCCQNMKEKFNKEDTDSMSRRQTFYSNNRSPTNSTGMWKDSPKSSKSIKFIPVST
Chain of Voltage-dependent L-type calcium channel subunit alpha-1C (P22002 whole entry): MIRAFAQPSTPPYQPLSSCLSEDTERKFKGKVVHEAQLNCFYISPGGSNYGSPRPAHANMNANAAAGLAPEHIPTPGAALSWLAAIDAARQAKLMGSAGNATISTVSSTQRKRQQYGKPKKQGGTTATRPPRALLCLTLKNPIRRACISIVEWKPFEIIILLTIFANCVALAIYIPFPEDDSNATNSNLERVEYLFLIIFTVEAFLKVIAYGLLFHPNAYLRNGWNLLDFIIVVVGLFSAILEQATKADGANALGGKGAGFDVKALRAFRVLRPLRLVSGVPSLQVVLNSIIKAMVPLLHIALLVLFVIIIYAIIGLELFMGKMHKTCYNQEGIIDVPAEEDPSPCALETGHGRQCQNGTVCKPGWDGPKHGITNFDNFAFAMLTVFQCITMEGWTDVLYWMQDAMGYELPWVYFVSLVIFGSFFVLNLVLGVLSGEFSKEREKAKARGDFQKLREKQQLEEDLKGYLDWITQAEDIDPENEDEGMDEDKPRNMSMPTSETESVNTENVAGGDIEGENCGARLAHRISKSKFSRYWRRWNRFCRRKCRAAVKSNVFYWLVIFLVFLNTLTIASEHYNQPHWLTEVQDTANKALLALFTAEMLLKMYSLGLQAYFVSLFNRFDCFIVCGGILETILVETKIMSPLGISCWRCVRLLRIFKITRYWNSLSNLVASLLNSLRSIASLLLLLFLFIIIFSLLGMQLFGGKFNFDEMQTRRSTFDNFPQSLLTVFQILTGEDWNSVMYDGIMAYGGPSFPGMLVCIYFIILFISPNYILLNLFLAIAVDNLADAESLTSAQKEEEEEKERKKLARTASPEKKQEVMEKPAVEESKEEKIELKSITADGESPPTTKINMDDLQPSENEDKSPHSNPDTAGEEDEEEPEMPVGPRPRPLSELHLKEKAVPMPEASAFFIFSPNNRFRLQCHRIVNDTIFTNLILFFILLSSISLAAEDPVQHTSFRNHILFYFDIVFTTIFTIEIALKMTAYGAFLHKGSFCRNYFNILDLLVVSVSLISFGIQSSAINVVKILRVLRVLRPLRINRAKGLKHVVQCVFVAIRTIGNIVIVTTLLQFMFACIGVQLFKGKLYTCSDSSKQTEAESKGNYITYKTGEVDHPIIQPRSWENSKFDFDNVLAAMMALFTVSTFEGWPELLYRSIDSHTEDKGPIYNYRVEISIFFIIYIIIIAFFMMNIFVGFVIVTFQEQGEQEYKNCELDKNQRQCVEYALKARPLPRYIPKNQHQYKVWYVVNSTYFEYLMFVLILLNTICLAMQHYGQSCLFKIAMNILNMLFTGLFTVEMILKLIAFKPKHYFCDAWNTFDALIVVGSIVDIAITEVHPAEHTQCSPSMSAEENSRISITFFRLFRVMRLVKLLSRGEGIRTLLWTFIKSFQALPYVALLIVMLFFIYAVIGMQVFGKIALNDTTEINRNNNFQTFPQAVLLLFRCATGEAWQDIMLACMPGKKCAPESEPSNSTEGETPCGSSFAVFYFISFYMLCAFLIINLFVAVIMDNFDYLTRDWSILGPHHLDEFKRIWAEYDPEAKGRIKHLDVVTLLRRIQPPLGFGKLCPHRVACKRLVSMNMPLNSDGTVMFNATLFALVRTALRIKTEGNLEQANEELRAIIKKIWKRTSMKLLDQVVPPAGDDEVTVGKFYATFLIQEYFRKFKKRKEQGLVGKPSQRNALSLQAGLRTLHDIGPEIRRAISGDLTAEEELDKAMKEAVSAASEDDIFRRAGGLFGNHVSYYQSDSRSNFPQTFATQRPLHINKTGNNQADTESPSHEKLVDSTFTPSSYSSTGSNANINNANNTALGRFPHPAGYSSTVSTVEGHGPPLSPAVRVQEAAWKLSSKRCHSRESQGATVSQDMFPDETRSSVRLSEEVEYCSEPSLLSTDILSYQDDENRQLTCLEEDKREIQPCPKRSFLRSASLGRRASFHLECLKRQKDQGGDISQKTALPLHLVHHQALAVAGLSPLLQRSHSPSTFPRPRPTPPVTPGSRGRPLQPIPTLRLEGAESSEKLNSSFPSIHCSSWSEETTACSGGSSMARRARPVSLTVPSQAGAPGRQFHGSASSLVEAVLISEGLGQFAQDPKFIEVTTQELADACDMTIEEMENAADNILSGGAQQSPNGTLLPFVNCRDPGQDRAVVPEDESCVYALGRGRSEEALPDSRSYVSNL

Structure (SMILES) | AC50 [1] | AC50 [2] | AC50 [3] | AC50 [4] | AC50 [5] | AC50 [6] | AC50 [7] | AC50 [8] | AC50 [9] | AC50 [10]
COC(=O)c1ccc(O)cc1 [METHYLPARABEN] | > 30 µM | > 30 µM | > 30 µM | > 30 µM |  |  |  |  |  | 
CCOC(=O)N1CSC[C@H]1C(=O)O [TELMESTEINE] | > 30 µM | > 30 µM | > 30 µM | > 30 µM |  |  |  |  |  | 
Cc1ncc(COP(=O)(O)O)c(C=O)c1O [PYRIDOXAL PHOSPHATE ANHYDROUS] | > 30 µM | > 30 µM | > 30 µM | > 30 µM |  |  |  |  |  | 
Cc1c(N(C)CS(=O)(=O)O)c(=O)n(-c2ccccc2)n1C [METAMIZOLE] | > 30 µM | > 30 µM | > 30 µM | > 30 µM |  |  |  |  |  | 
CCC(=O)O[C@]1(C(=O)CCl)[C@@H](C)C[C@H]2[C@@H]3C[C@H](F)C4=CC(=O)C=C[C@]4(C)[C@@]3(F)[C@@H](O)C[C@@]21C [HALOBETASOL PROPIONATE] | > 30 µM | > 30 µM | 13.1 µM | > 30 µM |  |  |  |  |  | 
Cc1cccc(N2CC(CO)OC2=O)c1 (stereo unspecified) [TOLOXATONE] |  |  |  |  | > 30 µM | > 30 µM | > 30 µM | > 30 µM | > 30 µM | > 30 µM
COc1cc(N)c(Cl)cc1C(=O)NC1CCN(Cc2ccccc2)CC1 [CLEBOPRIDE] |  |  |  |  | > 30 µM | > 30 µM | > 30 µM | > 30 µM | > 30 µM | > 30 µM
CC(C)N(CCNC(=O)CN1CCCC1=O)C(C)C | > 30 µM | > 30 µM | > 30 µM | > 30 µM |  |  |  |  |  | 
Cc1ccccc1N1CCN(CCc2nnc3n2CCCC3)CC1 [DAPIPRAZOLE] |  | > 30 µM |  | 0.628 µM |  |  |  |  |  | 
CN(C)CCOC(c1ccccc1)c1ccc(Br)cc1 (stereo unspecified) [BROMODIPHENHYDRAMINE] | > 30 µM | > 30 µM | > 10 µM | 22.2 µM |  |  |  |  |  | 
CC(C)(C)NC[C@H](O)COc1cccc2c1CCCC2=O [LEVOBUNOLOL] | > 30 µM | > 30 µM | > 30 µM | 0.886 µM |  |  |  |  |  | 
COCC1=C(C(=O)O)N2C(=O)[C@@H](NC(=O)/C(=N\OC)c3csc(N)n3)[C@H]2SC1 [CEFPODOXIME] |  |  |  |  | > 30 µM | > 30 µM | > 30 µM | > 30 µM | > 30 µM | > 30 µM
CC(N)Cc1ccc(O)cc1 (stereo unspecified) [HYDROXYAMPHETAMINE] | > 30 µM | > 30 µM | > 30 µM | > 30 µM |  |  |  |  |  | 
NCC(CC(=O)O)c1ccccc1 (stereo unspecified) [PHENIBUT] | > 30 µM | > 30 µM | > 30 µM | > 30 µM |  |  |  |  |  | 
O=C(O)c1cn(C2CC2)c2cc(N3CCNCC3)c(F)cc2c1=O [CIPROFLOXACIN] |  |  |  |  |  | > 10 µM |  |  |  | 
CC(C)NCC(O)c1ccc(O)c(O)c1 (stereo unspecified) [ISOPROTERENOL] |  |  |  |  | > 30 µM | > 10 µM |  | > 10 µM | > 30 µM | > 10 µM

Structure (SMILES) | AC50 [1] | AC50 [2] | AC50 [3] | AC50 [4] | AC50 [5] | AC50 [6] | AC50 [7] | AC50 [8] | AC50 [9] | AC50 [10]
CC1=CCC(C(C)(C)O)CC1O (stereo unspecified) [SOBREROL] | > 30 µM | > 30 µM | > 30 µM | > 30 µM |  |  |  |  |  | 
CCCc1nc(C(C)(C)O)c(C(=O)O)n1Cc1ccc(-c2ccccc2-c2nnn[nH]2)cc1 [OLMESARTAN] | > 30 µM | > 30 µM | > 30 µM | > 30 µM |  |  |  |  |  | 
CC(=O)O[C@]1(C(C)=O)CC[C@H]2[C@@H]3C=C(Cl)C4=CC(=O)CC[C@]4(C)[C@H]3CC[C@@]21C [CHLORMADINONE ACETATE] | > 30 µM | > 30 µM | 18 µM | > 30 µM |  |  |  |  |  | 
Clc1ccc2c(N3CCN(CCCN4CCN(c5ccnc6cc(Cl)ccc56)CC4)CC3)ccnc2c1 [PIPERAQUINE] |  |  |  |  | > 30 µM | > 30 µM | > 30 µM | > 30 µM | > 30 µM | > 30 µM
COc1ccc(CN(CCN(C)C)c2ccccn2)cc1 [PYRILAMINE] | > 30 µM | > 30 µM | > 30 µM | 26.4 µM |  |  |  |  |  | 
CCN(CCCc1ccccc1)CCCc1ccccc1 [ALVERINE] | > 30 µM | > 30 µM | 0.978 µM | 0.029 µM |  |  |  |  |  | 
CC1(C)S[C@@H]2[C@H](NC(=O)[C@H](N)c3ccccc3)C(=O)N2[C@H]1C(=O)OCOC(=O)[C@@H]1N2C(=O)C[C@H]2S(=O)(=O)C1(C)C [SULTAMICILLIN] |  |  |  |  | > 30 µM | > 30 µM | > 30 µM | > 30 µM | > 30 µM | > 30 µM
CCN(CC)C(=S)S [DITIOCARB] | > 30 µM | > 10 µM | > 1 µM | > 30 µM |  |  |  |  |  | 
Cc1cc(N)c2ccccc2[n+]1CCCCCCCCCC[n+]1c(C)cc(N)c2ccccc21 | 23.9 µM | 0.0264 µM | 3.21 µM | 2.53 µM |  |  |  |  |  | 
C=CCSCC1Nc2cc(Cl)c(S(N)(=O)=O)cc2S(=O)(=O)N1 (stereo unspecified) [ALTHIAZIDE] | > 30 µM | > 30 µM | > 30 µM | > 30 µM |  |  |  |  |  | 
COc1cc2c(cc1OC)CC(=O)N(CCCN(C)C[C@H]1Cc3cc(OC)c(OC)cc31)CC2 [IVABRADINE] | > 30 µM | > 30 µM | > 30 µM | 5.81 µM |  |  |  |  |  | 
C#C[C@]1(OC(C)=O)CC[C@H]2[C@@H]3CCC4=C/C(=N/O)CC[C@@H]4[C@H]3CC[C@@]21CC [NORGESTIMATE] |  |  |  |  |  | > 30 µM | > 30 µM | > 30 µM | > 30 µM | > 30 µM
C[C@]12CCC(=O)C(O)=C1CC[C@@H]1[C@@H]2CC[C@]2(C)C(=O)CC[C@@H]12 [FORMESTANE] |  |  |  |  |  | > 30 µM | > 30 µM | > 30 µM | > 30 µM | > 30 µM
CC(C)COCC(CN(Cc1ccccc1)c1ccccc1)N1CCCC1 (stereo unspecified) [BEPRIDIL] |  |  |  |  | > 30 µM | > 30 µM | 17 µM | 24 µM |  | > 30 µM
C=C1CC[C@H](O)C/C1=C/C=C1\CCC[C@]2(C)[C@@H]([C@H](C)/C=C/[C@H](C)C(C)C)CC[C@@H]12 [ERGOCALCIFEROL] |  | > 30 µM |  | > 30 µM |  |  |  |  |  | 
